In ChEMBL document CHEMBL2074457, “LST-2, a human liver-specific organic anion transporter, determines methotrexate sensitivity in gastrointestinal cancers” (Gastroenterology, 2001) one finds Activity and Km data, which are given here for five compounds.

Data set [1] has as its target T1, Solute carrier organic anion transporter family member 1B3 (Homo sapiens, UniProt Q9NPD5).
T1 sequence (Q9NPD5 whole entry): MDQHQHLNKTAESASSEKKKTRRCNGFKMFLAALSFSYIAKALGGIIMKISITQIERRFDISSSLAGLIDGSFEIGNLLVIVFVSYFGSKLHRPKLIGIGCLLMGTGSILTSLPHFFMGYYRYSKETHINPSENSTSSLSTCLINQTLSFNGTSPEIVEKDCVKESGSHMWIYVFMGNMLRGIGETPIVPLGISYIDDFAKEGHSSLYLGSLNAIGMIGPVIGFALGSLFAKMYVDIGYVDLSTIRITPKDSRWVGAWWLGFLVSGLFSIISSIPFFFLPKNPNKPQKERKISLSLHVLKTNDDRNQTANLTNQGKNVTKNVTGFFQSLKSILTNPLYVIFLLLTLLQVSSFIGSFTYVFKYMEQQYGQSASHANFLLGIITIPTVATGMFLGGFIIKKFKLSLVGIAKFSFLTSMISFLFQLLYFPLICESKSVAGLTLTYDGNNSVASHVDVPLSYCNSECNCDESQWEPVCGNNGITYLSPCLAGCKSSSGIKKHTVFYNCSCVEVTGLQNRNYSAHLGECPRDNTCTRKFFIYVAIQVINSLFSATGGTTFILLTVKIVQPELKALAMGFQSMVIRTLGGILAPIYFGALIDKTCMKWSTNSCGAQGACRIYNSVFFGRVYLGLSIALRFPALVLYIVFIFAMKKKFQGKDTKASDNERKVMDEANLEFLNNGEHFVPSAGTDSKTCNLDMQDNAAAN
Nature of the data set: (§1) TP_TRANSPORTER: uptake in Xenopus laevis oocytes. The class given is functional, cell-based, Oocyte. To be noted: for Activity: oocyte; for Km: Xenopus laevis oocytes expressing SLCO1B3 (OATP1B3).

In data set [2] the target is T2, Solute carrier organic anion transporter family member 1B1 (Homo sapiens, UniProt Q9Y6L6).
T2 sequence (Q9Y6L6 whole entry): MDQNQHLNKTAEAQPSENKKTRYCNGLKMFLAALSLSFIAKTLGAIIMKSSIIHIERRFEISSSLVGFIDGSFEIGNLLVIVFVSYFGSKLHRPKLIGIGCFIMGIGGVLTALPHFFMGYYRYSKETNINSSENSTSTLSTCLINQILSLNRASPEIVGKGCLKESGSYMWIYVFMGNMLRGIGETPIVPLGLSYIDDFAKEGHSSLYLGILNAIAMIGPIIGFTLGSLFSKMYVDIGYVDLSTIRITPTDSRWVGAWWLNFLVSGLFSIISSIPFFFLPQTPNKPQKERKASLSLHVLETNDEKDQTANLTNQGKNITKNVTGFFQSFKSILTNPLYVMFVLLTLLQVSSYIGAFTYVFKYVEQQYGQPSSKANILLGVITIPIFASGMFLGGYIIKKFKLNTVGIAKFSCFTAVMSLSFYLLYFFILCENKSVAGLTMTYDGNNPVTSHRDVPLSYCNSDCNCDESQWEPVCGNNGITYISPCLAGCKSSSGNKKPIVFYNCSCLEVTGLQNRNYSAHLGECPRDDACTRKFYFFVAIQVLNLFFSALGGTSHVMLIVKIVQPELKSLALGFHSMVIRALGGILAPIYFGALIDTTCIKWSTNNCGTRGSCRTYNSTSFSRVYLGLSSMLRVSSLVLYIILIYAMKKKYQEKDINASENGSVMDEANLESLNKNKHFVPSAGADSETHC
The data set is described as §1. The class given is functional, cell-based. Conditions: oocyte.

In data set [3] the target is T1, Solute carrier organic anion transporter family member 1B3. As to the kind of experiment: TP_TRANSPORTER: inhibition of MTX uptake (MTX: 1 uM, BSP: 100 uM) in Xenopus laevis oocytes. Type of data set: functional, cell-based. Conditions: oocyte.

Take `CC1(C)SSC(C)(C)[C@@H](NC(=O)[C@@H](N)Cc2ccc(O)cc2)C(=O)NCC(=O)N[C@@H](Cc2ccccc2)C(=O)N[C@H]1C(=O)O`: the Activity result in data set [1] was “is not a substrate [-]”.

Broadly, the Km is the concentration of substrate that gives half-maximal velocity. `N[C@@H](Cc1cc(I)c(Oc2ccc(O)c(I)c2)c(I)c1)C(=O)O` [LIOTHYRONINE]: the Km in data set [1] is 6.4 µM.

In the case of `CN(Cc1cnc2nc(N)nc(N)c2n1)c1ccc(C(=O)N[C@@H](CCC(=O)O)C(=O)O)cc1` [METHOTREXATE], the Activity result in data set [2] was “substrate [+]”. Moreover, the Km in data set [1] stood at 24.7 µM.

With `C[C@]12CC[C@H](OS(=O)(=O)O)CC1=CC[C@@H]1[C@@H]2CC[C@]2(C)C(=O)CC[C@@H]12` [PRASTERONE SULFURIC ACID], the Activity result in data set [1] was “substrate [+]”.

For the compound `O=C1OC(c2ccc(O)c(S(=O)(=O)[O-])c2)(c2ccc(O)c(S(=O)(=O)[O-])c2)c2c(Br)c(Br)c(Br)c(Br)c21.[Na+].[Na+]` [SULFOBROMOPHTHALEIN SODIUM], in data set [3], the Activity entry is “inhibitor [+]”.
